Laboratory results taken from ChEMBL document CHEMBL4316584, “All that glitters is not gold: Panning cytotoxic natural products and derivatives with a fused tricyclic backbone by the estimation of their leadlikeness for cancer treatment” (Eur J Med Chem, 2019).

Legend:
Assay type in all cases: functional, cell-based
MDA-MB-231 = experiment: Cytotoxicity against human MDA-MB-231 cells after 48 hrs by MTT assay; conditions: MDA-MB-231, 48 h
HepG2 = experiment: Cytotoxicity against human HepG2 cells after 48 hrs by MTT assay; conditions: HepG2, 48 h
MCF7 = experiment: Cytotoxicity against human MCF7 cells after 48 hrs by MTT assay; conditions: MCF7, 48 h
HL-60 [1] = experiment: Cytotoxicity against human HL60 cells after 48 hrs by MTS assay; conditions: HL-60, 48 h
HL-60 [2] = experiment: Cytotoxicity against human HL60 cells after 48 hrs by MTT assay; conditions: HL-60, 48 h
KB = experiment: Cytotoxicity against human KB cells after 48 hrs by MTT assay
K562 = experiment: Cytotoxicity against human K562 cells after 48 hrs by MTT assay; conditions: K562, 48 h

`Cc1cc(O)c2c(c1)C(=O)c1cc(OCCN3CCOCC3)cc(O)c1C2=O` was tested, and the IC50 (MDA-MB-231) was 4.24 µM.
`CCCCCCOc1cccc2c1C(=O)c1c(OCCCCCC)cc(Cn3cc(C)c(=O)[nH]c3=O)cc1C2=O` gave an IC50 (HepG2) of 4.2 µM.
Compound `O=C(NCCN1CCOCC1)c1cc(O)c2c(c1)C(=O)c1cc(O)cc(O)c1C2=O` has an IC50 (HepG2) of 20 µM.
For `O=C1C(=O)c2cccnc2-c2ncccc21`, the IC50 (MCF7) was 0.58 µM.
`Cc1cc(O)c2c(c1)C(=O)c1cc(O)c(CN3CCN(c4ccc(F)cc4)CC3)c(O)c1C2=O` gave an IC50 (HepG2) of 10.4 µM.
In the case of `c1ccc2c(c1)ncn2CCCCCn1c2ccccc2c2ccccc21`, the IC50 (HL-60 [1]) is reported as 14.1 µM.
Work on `Cc1cc(O)c2c(c1)C(=O)c1cc(O)c(CN3CCOCC3)c(O)c1C2=O` yielded an IC50 (HepG2) of 17.9 µM.
With `Cc1cc(O)c2c(c1)C(=O)c1cc(O)c(CN3CCN(C)CC3)c(O)c1C2=O` the IC50 (MDA-MB-231) was 10.4 µM.
`CCOC(=O)C(C)(C)Oc1cc(O)c2c(c1)C(=O)c1cc(C)cc(O)c1C2=O` gave an IC50 (MDA-MB-231) of 7.72 µM.
For `CC(CO)c1cc2c(cc1O)[C@@]1(C)CCCC(C)(C)[C@@H]1CC2` (some centres undefined), the IC50 (HL-60 [2]) was 16.2 µM.
In the case of `CCCNC1=CC(=O)c2c(O)c3c(c(O)c2C1=O)C[C@](C)(O)[C@H](O)C3`, the IC50 (HepG2) is reported as 9.98 µM.
Work on `CC(CO)c1cc(O)c2c(c1)CC[C@H]1C(C)(C)CCC[C@]1(O)C2` (some centres undefined) yielded an IC50 (MCF7) of 10.8 µM.
`COC1=C(C)C(O)=CC2C(=O)c3c(ccc(OC)c3OC)C(=O)C12` (centres undefined) showed an IC50 (MCF7) of 10.2 µM.
`COc1cc(O)c2c(c1O)C(=O)C1=C(C2=O)C(O)C(O)C(C)(O)C1` (centres undefined) was tested, and the IC50 (MCF7) was 7.5 µM.
`Cc1cc(O)c2c(c1)C(=O)c1cc(O)c(CN3CCCCC3)c(O)c1C2=O` was tested, and the IC50 (MDA-MB-231) was 12.3 µM.
With `O=C(NCCN1CCCCC1)c1cc(O)c2c(c1)C(=O)c1cc(O)cc(O)c1C2=O` the IC50 (HepG2) was 19 µM.
`COc1c(O)cc2oc3cc(O)c(CC=C(C)C)c(O)c3c(=O)c2c1CC=C(C)C` [MANGOSTIN] showed an IC50 (KB) of 14.1 µM.
In the case of `N#CC1=C(N)Oc2ccc3ccccc3c2C1c1ccc(Cl)cc1` (centres undefined), the IC50 (KB) is reported as 11.7 µM.
In the case of `C[C@]1(O)Cc2c(O)c3c(c(O)c2[C@H](O)[C@H]1O)C(=O)C=C(N1CCCCC1)C3=O`, the IC50 (MCF7) is reported as 3.14 µM.
Compound `C=C[C@@]1(C)C=C2[C@@H](O[C@@H]3O[C@H](C)[C@H](O)[C@H](O)[C@H]3O)C[C@@H]3C(C)(C)[C@H](O[C@@H]4O[C@@H](C)[C@H](O)[C@@H](O)[C@H]4O[C@H]4O[C@H](C)[C@H](O)[C@H](O)[C@H]4O)CC[C@@]3(C)[C@@H]2CC1` has an IC50 (MCF7) of 4.7 µM.
`COc1ccc(CNC2=CC(=O)c3c(O)c4c(c(O)c3C2=O)C[C@](C)(O)[C@H](O)C4)cc1` was tested, and the IC50 (HepG2) was 10.1 µM.
`COCCOCSc1nnc(-c2cccnc2)n1/N=C/c1c2ccccc2cc2ccccc12` gave an IC50 (K562) of 0.09 µM.
In the case of `C[C@]1(O)Cc2c(O)c3c(c(O)c2[C@H](O)[C@H]1O)C(=O)C=C(N1CCC(c2ccccc2)CC1)C3=O`, the IC50 (MCF7) is reported as 4.81 µM.
With `COc1cc2oc3cc(O)c(CC=C(C)C)c(O)c3c(=O)c2c(CC=C(C)C)c1OC` the IC50 (KB) was 12.8 µM.
With `CCCNC1=CC(=O)c2c(O)c3c(c(O)c2C1=O)C[C@](C)(O)[C@H](O)[C@H]3O` the IC50 (MCF7) was 14 µM.
For `CC(C)c1cc2c(cc1O)[C@@]1(C)CCCC(C)(C)[C@@H]1C(=O)C2`, the IC50 (K562) was 15.9 µM.
Compound `CCOP(=O)(OCC)C(C)(NC(=O)c1cc(O)c2c(c1)C(=O)c1cccc(O)c1C2=O)c1ccc(C)cc1` (centres undefined) has an IC50 (HepG2) of 15.1 µM.
`C=CCn1c2c(c3ccccc31)CCC(CN(C)C)C2=O` (centres undefined) gave an IC50 (K562) of 3.29 µM.
Compound `CC(C)=CCC/C(C)=C/Cc1c(O)ccc2oc3cc(O)cc(O)c3c(=O)c12` has an IC50 (KB) of 14.5 µM.
`Cc1ccc(C2C3=C(CC(C)(C)CC3=O)N(c3ccc(Cl)cc3)C3=C2C(=O)CC(C)(C)C3)cc1` gave an IC50 (HepG2) of 9.34 µM.
`CN(C)CC1CCc2c(n(C)c3ccccc23)C1=O` (centres undefined) showed an IC50 (K562) of 17.3 µM.
`CC(C)=CCc1c(O)c(CC=C(C)C)c2oc3cc(O)ccc3c(=O)c2c1O` gave an IC50 (HepG2) of 18.7 µM.
For `CCSC1=C(SCC)C(=O)c2c(O)c3c(c(O)c2C1=O)C[C@@H](O)[C@@](C)(O)C3`, the IC50 (HepG2) was 11.6 µM.
Work on `COC(=O)c1ccc2c(=O)c3c(O)cc(CCO)cc3oc2c1O` yielded an IC50 (MCF7) of 2.7 µM.
With `CC(C)=CCc1c(O)cc2oc3cccc(O)c3c(=O)c2c1O` the IC50 (HepG2) was 1.49 µM.
With `CCCCCCNC1=CC(=O)c2c(O)c3c(c(O)c2C1=O)C[C@](C)(O)[C@H](O)[C@H]3O` the IC50 (MCF7) was 4.87 µM.
For `N#CC1=C(N)Oc2c(ccc3ccccc23)C1c1cccc([N+](=O)[O-])c1` (centres undefined), the IC50 (MDA-MB-231) was 18.1 µM.
Work on `CC(CO)c1cc2c(c(O)c1O)C[C@@]1(O)CCCC(C)(C)[C@@H]1CC2` (some centres undefined) yielded an IC50 (MCF7) of 16 µM.
`CCOP(=O)(OCC)C(C)(NC(=O)c1cc(O)c2c(c1)C(=O)c1cccc(O)c1C2=O)c1ccccc1` (centres undefined) gave an IC50 (HepG2) of 18.2 µM.
For `N#CC1=C(N)Oc2c(ccc3ccccc23)C1c1ccc(Cl)cc1` (centres undefined), the IC50 (KB) was 14.7 µM.
`CC(=O)Oc1cc(OC(C)=O)c2c(c1)C(=O)c1cc(C(=O)O)cc(OC(C)=O)c1C2=O` showed an IC50 (MDA-MB-231) of 8.1 µM.
With `COc1cc(Cn2c3ccc(NC(=O)CCN(C)C)cc3c(=O)c3cc(NC(=O)CCN(C)C)ccc32)cc(OC)c1` the IC50 (K562) was 4.7 µM.
`O=c1c2ccc(O)cc2oc2cccc(O)c12` showed an IC50 (HepG2) of 18.4 µM.
`C#CCNC1=CC(=O)c2c(O)c3c(c(O)c2C1=O)C[C@](C)(O)[C@H](O)C3` gave an IC50 (HepG2) of 10.9 µM.
